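Step 1: Grow cells in 96-well plates. Step 2: Expose to compound for 48 hours at 5 concentrations. Step 3: Interpolate endpoints linearly; if unreached, use highest concentration. GI50 = concentration required for 50% inhibition of growth.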 Active and inactive are the calls of the source. No stated cut-off is given here; in the data, active = GI50 up to about 1.1 µM and inactive = higher.
Tests used:
Experiment in all cases: DTP human tumour cell line panel, 48 h
[1] = test system: 786-0
[2] = test system: CAKI-1
[3] = test system: CCRF-CEM
[4] = test system: COLO 205
[5] = test system: HCC 2998
[6] = test system: KM-20L2
[7] = test system: KM12
[8] = test system: LOX IMVI
[9] = test system: M19-MEL
[10] = test system: Malme-3M
[11] = test system: OVCAR-3
[12] = test system: OVCAR-5
[13] = test system: SF-268
[14] = test system: SNB-19
[15] = test system: SW-620
[16] = test system: UACC-257
[17] = test system: HOP-92
[18] = test system: MDA-MB-435
[19] = test system: MDA-N
[20] = test system: NCI/ADR-RES

Row | Compound | GI50 [1] | GI50 [2] | GI50 [3] | GI50 [4] | GI50 [5] | GI50 [6] | GI50 [7] | GI50 [8] | GI50 [9] | GI50 [10] | GI50 [11] | GI50 [12] | GI50 [13] | GI50 [14] | GI50 [15] | GI50 [16] | GI50 [17] | GI50 [18] | GI50 [19] | GI50 [20]
1 | O=C1C(Cl)C(c2ccccc2O)N1n1cnc2ccccc2c1=O (centres undefined) | 47.5 µM (inactive) | 37.8 µM (inactive) | 19.8 µM (inactive) | 30.1 µM (inactive) | > 100 µM (inactive) | 78.3 µM (inactive) | > 100 µM (inactive) | 61 µM (inactive) | 97.3 µM (inactive) | 75.3 µM (inactive) | > 100 µM (inactive) | > 100 µM (inactive) | 43.4 µM (inactive) | 63.8 µM (inactive) | 58.7 µM (inactive) | 46.7 µM (inactive) | – | – | – | –
2 | N#CC(c1ccccn1)c1nc2ccccc2[nH]1 (centres undefined) | 97.5 µM (inactive) | > 100 µM (inactive) | > 100 µM (inactive) | > 100 µM (inactive) | > 100 µM (inactive) | – | – | – | > 100 µM (inactive) | > 100 µM (inactive) | > 100 µM (inactive) | > 100 µM (inactive) | > 100 µM (inactive) | > 100 µM (inactive) | > 100 µM (inactive) | > 100 µM (inactive) | – | – | – | –
3 | OCC(O)C(OC1OC(CO)C(O)C(O)C1O)c1nn(-c2ccc(F)cc2)c2nc3cc(Cl)c(Cl)cc3cc12 (centres undefined) | > 100 µM (inactive) | – | > 100 µM (inactive) | – | > 100 µM (inactive) | > 100 µM (inactive) | > 100 µM (inactive) | > 100 µM (inactive) | > 100 µM (inactive) | > 100 µM (inactive) | > 100 µM (inactive) | > 100 µM (inactive) | > 100 µM (inactive) | > 100 µM (inactive) | – | > 100 µM (inactive) | – | – | – | –
4 | CCO/C=N/C1=C(C#N)C(c2ccc(OC)c(OC)c2)c2c(-c3ccccc3)nn(-c3ccccc3)c2O1 (centres undefined) | 13.6 µM (inactive) | 17 µM (inactive) | 2.23 µM (inactive) | 13.1 µM (inactive) | > 100 µM (inactive) | – | 8.02 µM (inactive) | 15.4 µM (inactive) | – | 19 µM (inactive) | 16.1 µM (inactive) | 10.7 µM (inactive) | 18.5 µM (inactive) | 15.9 µM (inactive) | 11.8 µM (inactive) | > 100 µM (inactive) | 13.4 µM (inactive) | 17 µM (inactive) | 18.7 µM (inactive) | 15.6 µM (inactive)
5 | O=C(/C=C\Nc1ccccc1O)C(Cl)(Cl)Cl | 22.8 µM (inactive) | 34.9 µM (inactive) | 28.1 µM (inactive) | 48.3 µM (inactive) | 26.3 µM (inactive) | – | 33.7 µM (inactive) | 31.8 µM (inactive) | – | 82 µM (inactive) | 17.8 µM (inactive) | 77.4 µM (inactive) | > 100 µM (inactive) | 76.2 µM (inactive) | > 100 µM (inactive) | 33.5 µM (inactive) | 70.5 µM (inactive) | 20.6 µM (inactive) | 25.3 µM (inactive) | 99.3 µM (inactive)
6 | COc1ccc2[nH]c3c4c(c5cc(C(C)(C)C)ccc5c3c2c1)C(=O)N(c1ccccc1)C4=O | > 100 µM (inactive) | > 100 µM (inactive) | > 10 µM (inactive) | > 100 µM (inactive) | 21.3 µM (inactive) | > 100 µM (inactive) | > 100 µM (inactive) | > 100 µM (inactive) | > 100 µM (inactive) | > 100 µM (inactive) | > 100 µM (inactive) | > 100 µM (inactive) | > 100 µM (inactive) | > 100 µM (inactive) | > 100 µM (inactive) | > 100 µM (inactive) | – | – | – | –
7 | C=CCN(C(C)=O)c1cc(OCc2ccccc2)c2c(c1)c(C)cn2S(=O)(=O)c1ccccc1 | 6.21 µM (inactive) | 6.59 µM (inactive) | 4.11 µM (inactive) | 3.78 µM (inactive) | 22.1 µM (inactive) | – | 3.85 µM (inactive) | 5.07 µM (inactive) | – | 6.58 µM (inactive) | 4.15 µM (inactive) | 11.8 µM (inactive) | 5.37 µM (inactive) | 7.08 µM (inactive) | 5.46 µM (inactive) | 5.11 µM (inactive) | 5.96 µM (inactive) | 5.11 µM (inactive) | 4.66 µM (inactive) | 4.95 µM (inactive)
8 | CCN(CC)/[N+]([O-])=N/OCOC | > 100 µM (inactive) | > 100 µM (inactive) | > 100 µM (inactive) | > 100 µM (inactive) | > 100 µM (inactive) | – | > 100 µM (inactive) | > 100 µM (inactive) | – | > 100 µM (inactive) | > 100 µM (inactive) | > 100 µM (inactive) | > 100 µM (inactive) | > 100 µM (inactive) | > 100 µM (inactive) | > 100 µM (inactive) | > 100 µM (inactive) | > 100 µM (inactive) | > 100 µM (inactive) | > 100 µM (inactive)
9 | C=CCc1[nH]c2c(OCc3ccccc3)cc(N(CC=C)C(C)=O)cc2c1C | 14.2 µM (inactive) | 15.5 µM (inactive) | 22.3 µM (inactive) | 15.2 µM (inactive) | 15.1 µM (inactive) | – | 13.3 µM (inactive) | 12.5 µM (inactive) | – | 16.4 µM (inactive) | 14.3 µM (inactive) | 14.1 µM (inactive) | 12.2 µM (inactive) | 12.8 µM (inactive) | 13.9 µM (inactive) | 16 µM (inactive) | 12.7 µM (inactive) | 17.1 µM (inactive) | 14.4 µM (inactive) | 14.3 µM (inactive)
10 | O=C(CCSC(CC(=O)c1ccc(Cl)cc1)c1ccc(Cl)cc1)Nc1ccc(Cl)cc1 (centres undefined) | 13.8 µM (inactive) | 18.4 µM (inactive) | 2.09 µM (inactive) | 18.6 µM (inactive) | 14 µM (inactive) | – | 3.21 µM (inactive) | 5.83 µM (inactive) | – | 16.9 µM (inactive) | 14.1 µM (inactive) | 16.4 µM (inactive) | 15.2 µM (inactive) | 13.7 µM (inactive) | 2.88 µM (inactive) | 15.7 µM (inactive) | 17.6 µM (inactive) | 12.3 µM (inactive) | 9.68 µM (inactive) | 15.5 µM (inactive)
11 | Cc1ccc(C(=O)/C=C2\Nc3ccccc3N=C2NC23CC4CC(CC(C4)C2)C3)cc1 | > 10 µM (inactive) | > 10 µM (inactive) | 1 µM (active) | > 10 µM (inactive) | > 10 µM (inactive) | – | > 10 µM (inactive) | > 10 µM (inactive) | – | > 10 µM (inactive) | > 10 µM (inactive) | > 10 µM (inactive) | > 10 µM (inactive) | > 10 µM (inactive) | 7.24 µM (inactive) | > 10 µM (inactive) | > 10 µM (inactive) | > 10 µM (inactive) | > 10 µM (inactive) | > 10 µM (inactive)
12 | CCCC(=O)OCC1OC(n2cc(F)c(=O)[nH]c2=O)CC1O (centres undefined) | 0.337 µM (active) | 0.0402 µM (active) | 0.0356 µM (active) | 2.22 µM (inactive) | 0.00381 µM (active) | – | > 10 µM (inactive) | 0.0303 µM (active) | – | > 5.06 µM (inactive) | > 2.11 µM (inactive) | > 8.11 µM (inactive) | 0.0306 µM (active) | > 10 µM (inactive) | > 10 µM (inactive) | 4.1 µM (inactive) | 1.1 µM (active) | > 7.98 µM (inactive) | 1.45 µM (inactive) | 1.7 µM (inactive)
13 | O=C(O)/C(O)=C\C(=O)c1ccc(Br)cc1 | > 100 µM (inactive) | > 100 µM (inactive) | 68.7 µM (inactive) | > 100 µM (inactive) | > 100 µM (inactive) | – | > 100 µM (inactive) | > 100 µM (inactive) | – | > 100 µM (inactive) | > 100 µM (inactive) | > 100 µM (inactive) | > 100 µM (inactive) | > 100 µM (inactive) | > 100 µM (inactive) | > 100 µM (inactive) | > 100 µM (inactive) | > 100 µM (inactive) | > 100 µM (inactive) | > 100 µM (inactive)
14 | COc1cc(C=O)ccc1O [VANILLIN] | > 100 µM (inactive) | > 100 µM (inactive) | > 100 µM (inactive) | > 100 µM (inactive) | > 100 µM (inactive) | – | > 100 µM (inactive) | > 100 µM (inactive) | – | > 100 µM (inactive) | > 100 µM (inactive) | > 100 µM (inactive) | > 100 µM (inactive) | > 100 µM (inactive) | > 100 µM (inactive) | > 100 µM (inactive) | > 100 µM (inactive) | > 100 µM (inactive) | > 100 µM (inactive) | > 100 µM (inactive)
15 | O=[N+]([O-])c1c2nc3n(c2cc2c1nc1n2CCC1)CCC3 | > 100 µM (inactive) | > 100 µM (inactive) | > 100 µM (inactive) | > 100 µM (inactive) | > 100 µM (inactive) | – | > 100 µM (inactive) | > 100 µM (inactive) | – | 93.1 µM (inactive) | > 100 µM (inactive) | > 100 µM (inactive) | > 100 µM (inactive) | > 100 µM (inactive) | > 100 µM (inactive) | > 100 µM (inactive) | > 100 µM (inactive) | > 100 µM (inactive) | > 100 µM (inactive) | > 100 µM (inactive)
16 | COc1ccc(C2CC(=O)CC(c3ccc(OC)cc3)C23C(=O)NC(=O)NC3=O)cc1 (centres undefined) | 30.5 µM (inactive) | 33.1 µM (inactive) | 32.7 µM (inactive) | 32.1 µM (inactive) | 20.3 µM (inactive) | – | 25.6 µM (inactive) | 30.5 µM (inactive) | – | 25.9 µM (inactive) | 19.3 µM (inactive) | 56.4 µM (inactive) | 44.1 µM (inactive) | 35.3 µM (inactive) | 18.7 µM (inactive) | 38.1 µM (inactive) | 25.1 µM (inactive) | 22.7 µM (inactive) | 31.8 µM (inactive) | 34.4 µM (inactive)

— ChEMBL document CHEMBL1201862, “PubChem BioAssay data set” (2004)
